{
  "source": "patent US20100144855A1",
  "about": "“APPLICATION OF SEDOISOPROSAN FOR PREPARATION OF MEDICINE FOR TREATMENT OF HUMAN HBeAg POSITIVE CHRONIC HEPATITIS B” (priority 2008, published 2010)",
  "key": {"hepatitis B virus": {"tested_on": "hepatitis B virus", "experiment": "clinical trial, curative effect in HBeAg positive chronic hepatitis B patients", "format": "in vivo, human", "procedure": "The clinical trial protocol was designed according to the randomized, double-blind and controlled principle. The clinical efficacy and the safety of sedoisoprosan for therapy on human HBeAg positive chronic hepatitis B is defined according to the changes of vivo HBV-DNA level, ALT level, vital signs, blood routine indexes, blood biochemical indexes and thyroid function indexes before and after administration and the incidence of adverse events.\nThe clinical trials were performed on adult chronic hepatitis B patients who were HBsAg positive, HBeAg positive and HBsAb negative, with HBV-DNA levels more than 10^5 copies/ml and increased ALT.\nPatients enrolled in the clinical trials must meet all the following criteria: signature of informed consent forms; age ≧18 years and ≦65 years; HBsAg positive, HBeAg positive and HBsAb negative for over 6 months; HBV-DNA level ≧10^5 copies/ml; increase in serum ALT level in 6 months before the first administration (ULN<ALT≦10×ULN for twice, wherein ALT≧2×ULN for once); negative pregnancy tests for women of child-bearing age in 24 hours before the first administration; and effective contraception measures used during the clinical trials and within 3 months after the therapy.\nSince the effective doses of sedoisoprosan for reducing serum DHBV-DNA levels of ducks infected with hepatitis B virus was 200 mg/kg and 100 mg/kg (intraperitoneal injection, twice a day), doses of sedoisoprosan for the clinical trials may be between 200 mg and 800 mg (intravenous drip, once a day). […] For the purpose of the present invention, three doses of sedoisoprosan, 200 mg, 400 mg and 800 mg in 250ml 5% glucose solution (intravenous drip, within 60 mins), were used in the clinical trials.\nAccording to the traditional treatment for chronic hepatitis B with interferon, patients enrolled in the clinical trials were administrated with sedoisoprosan once a day continuously for 4 weeks, then 3 times a week continuously for 8 weeks.\nThree doses of sedoisoprosan, 200 mg, 400 mg and 800 mg respectively, were used for treatment. Mannite of 800 mg was used for negative control.\nPatients enrolled in the clinical trials were randomly divided into four groups, i.e. negative control group (800 mg mannite), low dose group (200 mg sedoisoprosan with 600 mg mannite), median dose group (400 mg sedoisoprosan with 400 mg mannite) and high dose group (800 mg sedoisoprosan) respectively. Each patient was assigned with a CRF No. which was randomly generated by computer.\nBaseline assessment was performed on the day of the first administration, which included medical examination, hematological examination, blood biochemical examination, thyroid function examination, ALT examination and quantitative detection of HBV-DNA. The medical examination included the examination of stature, avoirdupois, blood pressure and pulse rate. The hematological examination included the leucocyte, neutrophil, erythrocyte, platelet and haemoglobin counts, and the prothrombin time. The blood biochemical examination included the examination of serum potassium, sodium, GOT, total bilirubin, AKP, total protein, albumin, total cholesterol, triglyceride, urea nitrogen, creatinine and glucose.\nThe patients were followed up at the 1st, 2nd, 4th, 8th and 12th week of the treatment. The blood biochemical examination and the quantitative detection of HBV-DNA was performed at the 2nd, 4th, 8th and 12th week of the treatment, and the adverse events were recorded at the same time. The thyroid function examination was performed at the 12th week of the treatment.\nThe primary curative effect index was the virologic response rate at the 12th week of the treatment, i.e. the proportion of patients having HBV-DNA levels not more than 2×10^4 copies/ml or having a decline in HBV-DNA levels of 2 log10 copies/ml compared to the baseline value. […]"}, "[1]": {"tested_on": "duck hepatitis B virus (DHBV)", "settings": "cited from earlier work"}, "[2]": {"settings": "high dose group (800 mg sedoisoprosan), after 12 weeks' treatment"}, "[3]": {"settings": "high dose group, after 12 weeks' treatment"}, "[4]": {"settings": "low dose group (200 mg sedoisoprosan with 600 mg mannite), after 12 weeks' treatment"}, "[5]": {"settings": "median dose group (400 mg sedoisoprosan with 400 mg mannite), after 12 weeks' treatment"}},
  "data": [
    {"molecule": "CC1(C)OC2C3COC(CO)(O3)C(O)C2O1", "note": "(stereo not shown) [sedoisoprosan, isopropylidene sedoheptulosan]", "values": [
      {"measurement": "HBV-DNA levels, dose-effect relationship", "setting": "hepatitis B virus; 200, 400, 800 mg, after 12 weeks' treatment", "value": "tended to decrease more as the doses increased"},
      {"measurement": "The 12th Week Decrease Values of lg(HBV-DNA), mean ± SD", "setting": "hepatitis B virus; high dose group (800 mg sedoisoprosan), 16 cases", "value": "0.96 ± 1.41"},
      {"measurement": "Biochemical Response Rates", "setting": "hepatitis B virus; [2]", "value": 18.75, "unit": "%"},
      {"measurement": "Combined Response Rates", "setting": "hepatitis B virus; [2]", "value": 6.25, "unit": "%"},
      {"measurement": "HBeAg Negative Conversion Rates", "setting": "hepatitis B virus; [2]", "value": 6.25, "unit": "%"},
      {"measurement": "Virologic Response Rate", "setting": "hepatitis B virus; high dose group (800 mg sedoisoprosan), the 4th week, 16 cases", "value": 0.00, "unit": "%"},
      {"measurement": "Virologic Response Rate", "setting": "hepatitis B virus; high dose group (800 mg sedoisoprosan), the 8th week, 16 cases", "value": 12.50, "unit": "%"},
      {"measurement": "Virologic Response Rate", "setting": "hepatitis B virus; high dose group (800 mg sedoisoprosan), the 12th week, 16 cases", "value": 18.75, "unit": "%"},
      {"measurement": "cases of HBeAg negative conversion", "setting": "hepatitis B virus; [3]", "value": "one"},
      {"measurement": "decrease values of lg(HBV-DNA), comparison within the group", "setting": "hepatitis B virus; [3]", "value": "significant differences"},
      {"measurement": "effect on hepatitis B virus (conclusion of the clinical trials)", "setting": "hepatitis B virus; human HBeAg positive chronic hepatitis B", "value": "effectively inhibit hepatitis B virus"},
      {"measurement": "The 12th Week Decrease Values of lg(HBV-DNA), mean ± SD", "setting": "hepatitis B virus; low dose group (200 mg sedoisoprosan with 600 mg mannite), 13 cases", "value": "0.52 ± 1.28"},
      {"measurement": "Biochemical Response Rates", "setting": "hepatitis B virus; [4]", "value": 6.25, "unit": "%"},
      {"measurement": "Combined Response Rates", "setting": "hepatitis B virus; [4]", "value": 0, "unit": "%"},
      {"measurement": "HBeAg Negative Conversion Rates", "setting": "hepatitis B virus; [4]", "value": 0, "unit": "%"},
      {"measurement": "Virologic Response Rate", "setting": "hepatitis B virus; low dose group (200 mg sedoisoprosan with 600 mg mannite), the 4th week, 13 cases", "value": 15.38, "unit": "%"},
      {"measurement": "Virologic Response Rate", "setting": "hepatitis B virus; low dose group (200 mg sedoisoprosan with 600 mg mannite), the 8th week, 13 cases", "value": 15.38, "unit": "%"},
      {"measurement": "Virologic Response Rate", "setting": "hepatitis B virus; low dose group (200 mg sedoisoprosan with 600 mg mannite), the 12th week, 13 cases", "value": 15.38, "unit": "%"},
      {"measurement": "The 12th Week Decrease Values of lg(HBV-DNA), mean ± SD", "setting": "hepatitis B virus; median dose group (400 mg sedoisoprosan with 400 mg mannite), 14 cases", "value": "0.40 ± 0.90"},
      {"measurement": "Biochemical Response Rates", "setting": "hepatitis B virus; [5]", "value": 12.50, "unit": "%"},
      {"measurement": "Combined Response Rates", "setting": "hepatitis B virus; [5]", "value": 0, "unit": "%"},
      {"measurement": "HBeAg Negative Conversion Rates", "setting": "hepatitis B virus; [5]", "value": 0, "unit": "%"},
      {"measurement": "Virologic Response Rate", "setting": "hepatitis B virus; median dose group (400 mg sedoisoprosan with 400 mg mannite), the 4th week, 14 cases", "value": 0.00, "unit": "%"},
      {"measurement": "Virologic Response Rate", "setting": "hepatitis B virus; median dose group (400 mg sedoisoprosan with 400 mg mannite), the 8th week, 14 cases", "value": 0.00, "unit": "%"},
      {"measurement": "Virologic Response Rate", "setting": "hepatitis B virus; median dose group (400 mg sedoisoprosan with 400 mg mannite), the 12th week, 14 cases", "value": 14.29, "unit": "%"},
      {"measurement": "decrease values of lg(HBV-DNA), comparison within the group", "setting": "hepatitis B virus; median dose group and low dose group, after 12 weeks' treatment", "value": "no significant differences"},
      {"measurement": "DHBV-DNA level", "setting": "[1]; animal experiments", "value": "reduce"},
      {"measurement": "serum DHBV-DNA levels", "setting": "[1]; ducks infected with hepatitis B virus, intraperitoneal 200 mg/kg or 100 mg/kg twice a day for 14 days, seventh and fourteenth day", "value": "obviously decreased"}
    ]}
  ]
}
